In PMC6642116, “Structural and functional analyses of hepatitis B virus X protein BH3-like domain and Bcl-xL interaction” (Nature Communications, 2019):

Experiments:
[1] = tested on: caspase-3 (CASP3); assay: Caspase-3 proteolytic activation in HepG2.2.15 cells (immunoblot); type: cell-based; details: HepG2.2.15, 2 days
Protocol: (§1) Fig. 6 The HBx-aa118–127 peptide, but not ABT-263, inhibits HBV replication and transcription in HepG2.2.15 cells. a HepG2.2.15 cells were treated with 125, 250, 500, and 1000 nM of ABT-263 for 2 days. Cytoplasmic HBV viral particles were isolated and the viral DNA replication intermediates were quantified (Methods). The results represent the fold change of the replicative intermediates in HepG2.2.15 cells from the indicated treatments, compared with those without treatment. b HepG2.2.15 cells were treated with the indicated concentrations of ABT-263 for 2 days. The lysate was analyzed by immunoblotting using antibodies to caspase-3 (CASP3) and GAPDH (glyceraldehyde 3-phosphate dehydrogenase). c, d The HBx-aa113–135, HBx-aa118–127, or the control peptides were delivered into HepG2.2.15 cells using PEP-1 nanoparticles (Methods). The levels of HBV DNA (c) and the levels of HBV S-antigen (HBsAg) expression (d) in culture medium collected from HepG2.2.15 cells were measured (Methods). The results are shown as fold change compared to that of the control peptide. e–g HepG2-NTCP cells were transfected with HBx118–127 peptide with concentration of […], and 50 μg/ml or unrelated control peptide during HBV infection (multiplicity of infection (MOI) = 200), respectively. e HBV e-antigen (HBeAg), f HBV DNA, and g cell viability were measured at day 8 after HBV infection. […]

[2] = molecular target: T1, Bcl-xL (Homo sapiens, UniProt Q07817, DEL27-82); details: cited from earlier work
T1 construct: 6xHis-SUMO (N, cleaved yes); made in house; host or cells: Escherichia coli BL21(DE3)

[3] = tested on: HBV DNA in HepG2.2.15 cells; assay: HBV DNA replication in HepG2.2.15 cells treated with ABT-263 or ABT-737; type: cell-based; details: for HBV DNA: 2 days; for inhibition of HBV DNA replication (in words): 125-1000 nM, 48 h
Protocol: as §1, with “infection. Data shown represent mean ± SD. Significance is indicated on the top. Not significant (ns): *P < 0.05, **P < 0.01; two-tailed unpaired t tests (n = 3 biologically independent samples). Source data are provided as a Source Data file” for “infection.”
ABT-263 and ABT-737, the picomolar BH3 mimetics, were purchased from Apexbt Technology LLC (Houston, TX, USA). HepG2.2.15 cells were treated with 125, 250, 500, and 1000 nM of ABT-263 or ABT-737 for 48 h. Cytoplasmic HBV viral particles and HBV DNA were then isolated for quantification.
ABT-263 or ABT-737 for two days. Cytoplasmic HBV viral particles were isolated and the viral DNA replication intermediates were quantified by real-time PCR using a specific primer set targeting HBS ORF (Materials and Methods). The results represent the fold change of the replicative intermediates in HepG2.2.15 cells from the indicated treatments, compared with those without treatment. b HepG2.2.15 cells were treated with the indicated concentrations of ABT-263 or ABT-737 for two days. The lysate was analyzed by immunoblotting using antibodies to Caspase-3 (CASP3) and GAPDH.
Data shown represent mean ± SD. Significance is indicated on the top. Not significant (ns): P > 0.05; two-tailed unpaired t-tests. Source data are provided as a Source Data […]
(1 picture or pasted object on this page, not shown here)

[4] = tested on: HBV in HepG2.2.15 cells; assay: Combination of HBx118–127 and ABT-263 on HBV in HepG2.2.15 cells; type: cell-based; details: ABT-263 1 μM, HBx118–127 via PEP-1; for HBV DNA: HepG2.2.15 culture medium, 48 h in total; for HBV DNA / HBeAg in culture medium / HBsAg in culture medium / Intracellular HBcAg: sequential: ABT-263 12 h then HBx118–127 36 h; for HBeAg in culture medium / HBsAg in culture medium / Intracellular HBcAg: HepG2.2.15, 48 h in total
Protocol: In all panels, from left to right (bars 1–5), cells were treated with placebo buffer, HBx118–127 only, ABT-263 only, HBx118–127 and ABT-263 together, and ABT-263, followed by HBx118–127, respectively. The cells in bars 1–4 were treated for 48 h, whereas the cells in bar 5 were first treated by ABT-263 for 12 h, followed by treatment with HBx118–127 for another 36 h. The final concentration of ABT-263 was 1 μM in the culture medium, while HBx-aa118–127 was delivered by PEP-1 nanoparticles. After 48-h treatment, the protein expression levels of HBV S-antigen (HBsAg) (a) and HBV e-antigen (HBeAg) (b) in the culture medium, the intracellular protein expression level of HBV core antigen (HBcAg) (c), and the HBV viral DNA tilter (d) in the culture medium of HepG2.2.15 cells were measured (Methods). The results are shown as fold changes compared to the values obtained from the cells treated with the placebo buffer. Data shown represent mean ± SD. Significance is indicated on the top. Not significant (ns): *P < 0.05, **P < 0.01, ***P < 0.001; two-tailed unpaired t tests (n = 3 biologically independent samples). Source data are provided as a Source Data file
The levels of HBsAg, HBeAg, and HBcAg expression were measured by chemiluminescence, using Commercial Assay Kit (Wantai, Beijing, China). Northern blot analysis of HBV RNA, Southern blot analysis of HBV DNA, and real-time PCR quantification of HBV DNA are described in the Supplementary Methods.

T1 sequence (Q07817 with tags, fused parts or gaps DEL27-82 limits assumed): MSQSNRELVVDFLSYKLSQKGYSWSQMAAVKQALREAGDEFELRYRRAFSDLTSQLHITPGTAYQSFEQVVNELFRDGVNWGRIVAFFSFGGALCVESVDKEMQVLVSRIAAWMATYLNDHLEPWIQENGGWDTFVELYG

| SMILES | proteolytic activation of caspase-3 (in words) [1] | reported Bcl-xL inhibitor potency (in words) [2] | HBV DNA ([3]; 125 nM, replicate 1) | HBV DNA ([3]; 125 nM, replicate 2) | HBV DNA ([3]; 125 nM, replicate 3) | HBV DNA ([3]; 250 nM, replicate 1) | HBV DNA ([3]; 250 nM, replicate 2) | HBV DNA ([3]; 250 nM, replicate 3) | HBV DNA ([3]; 500 nM, replicate 1) | HBV DNA ([3]; 500 nM, replicate 2) | HBV DNA ([3]; 500 nM, replicate 3) | HBV DNA ([3]; 1000 nM, replicate 1) | HBV DNA ([3]; 1000 nM, replicate 2) | HBV DNA ([3]; 1000 nM, replicate 3) | inhibition of HBV DNA replication (in words) [3] | other results |
| --- | --- | --- | --- | --- | --- | --- | --- | --- | --- | --- | --- | --- | --- | --- | --- | --- |
| CN(C)CC[C@H](CSc1ccccc1)Nc1ccc(S(=O)(=O)NC(=O)c2ccc(N3CCN(Cc4ccccc4-c4ccc(Cl)cc4)CC3)cc2)cc1[N+](=O)[O-] [ABT-737] | induced significant proteolytic activation of caspase-3 | picomolar | 1.000 fold change to non-treatment | 0.986 fold change to non-treatment | 0.979 fold change to non-treatment | 1.110 fold change to non-treatment | 1.035 fold change to non-treatment | 1.007 fold change to non-treatment | 0.953 fold change to non-treatment | 1.000 fold change to non-treatment | 1.021 fold change to non-treatment | 0.993 fold change to non-treatment | 1.021 fold change to non-treatment | 1.021 fold change to non-treatment | did not inhibit HBV DNA replication |  |
| CC1(C)CCC(c2ccc(Cl)cc2)=C(CN2CCN(c3ccc(C(=O)NS(=O)(=O)c4ccc(N[C@H](CCN5CCOCC5)CSc5ccccc5)c(S(=O)(=O)C(F)(F)F)c4)cc3)CC2)C1 [ABT-263] | induced significant proteolytic activation of caspase-3 | picomolar | 0.966 fold change to non-treatment | 1.035 fold change to non-treatment | 1.028 fold change to non-treatment | 1.021 fold change to non-treatment | 0.966 fold change to non-treatment | 0.946 fold change to non-treatment | 1.021 fold change to non-treatment | 0.973 fold change to non-treatment | 0.966 fold change to non-treatment | 1.000 fold change to non-treatment | 0.940 fold change to non-treatment | 0.940 fold change to non-treatment | did not inhibit HBV DNA replication | HBV DNA ([4]; replicate 1): 1.089 fold-change to control; HBV DNA ([4]; replicate 2): 1.052 fold-change to control; HBV DNA ([4]; replicate 3): 0.924 fold-change to control; HBeAg in culture medium ([4]; replicate 1): 1.047 fold-change to control; HBsAg in culture medium ([4]; replicate 1): 0.956 fold-change to control; Intracellular HBcAg ([4]; replicate 1): 0.979 fold-change to control; HBeAg in culture medium ([4]; replicate 2): 0.911 fold-change to control; HBsAg in culture medium ([4]; replicate 2): 0.938 fold-change to control; Intracellular HBcAg ([4]; replicate 2): 0.909 fold-change to control; HBeAg in culture medium ([4]; replicate 3): 0.937 fold-change to control; HBsAg in culture medium ([4]; replicate 3): 0.832 fold-change to control; Intracellular HBcAg ([4]; replicate 3): 0.921 fold-change to control; effect on HBV replication (in words) ([4]; HepG2.2.15): did not affect HBV replication |
